Key:
[1] = target: T1, FAAH (Mus musculus, UniProt O08914); test: In vivo FAAH inhibition after oral dosing, remaining activity in brain homogenate (BRh, central nervous tissue); set-up: species or system NMRI mice; conditions: brain homogenate, 3 mg/kg; for In Vivo BRh 3 mg·kg 8 h (remaining FAAH activity, % of control): 8 h after dosing, low value = strong inhibitor
T1 construct: A fragment of liver, left lung lobe and brain without cerebellum were removed; from tissue; host or cells: male NMRI mice; brain (without cerebellum) and liver homogenates
T1 sequence (O08914 1-579): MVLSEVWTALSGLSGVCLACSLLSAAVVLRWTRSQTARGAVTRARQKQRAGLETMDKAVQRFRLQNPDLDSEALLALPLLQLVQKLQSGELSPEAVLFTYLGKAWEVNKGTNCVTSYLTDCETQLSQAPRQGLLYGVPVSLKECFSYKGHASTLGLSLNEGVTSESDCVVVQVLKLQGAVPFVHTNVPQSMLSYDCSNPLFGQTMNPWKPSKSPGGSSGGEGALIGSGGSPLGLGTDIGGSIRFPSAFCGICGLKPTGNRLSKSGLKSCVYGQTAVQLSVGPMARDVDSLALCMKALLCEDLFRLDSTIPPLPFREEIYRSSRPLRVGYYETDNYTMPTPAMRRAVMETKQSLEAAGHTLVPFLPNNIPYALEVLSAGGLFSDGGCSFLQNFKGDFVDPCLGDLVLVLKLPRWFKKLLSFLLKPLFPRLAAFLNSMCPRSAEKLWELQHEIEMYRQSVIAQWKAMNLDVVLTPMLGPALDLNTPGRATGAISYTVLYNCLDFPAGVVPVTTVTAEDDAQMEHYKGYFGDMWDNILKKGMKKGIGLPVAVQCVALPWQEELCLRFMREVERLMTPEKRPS
How it was run: (§1)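 Male NMRI mice, fasted overnight, got 30 or 3 mg/kg compound orally (0.5% CMC suspension or water) and were compared with vehicle controls. Brain (no cerebellum) and liver homogenates were incubated with 2 μM AEA plus 5 nM 3H-AEA at 37 °C, 10 min for brain and 7 min for liver. Remaining FAAH activity is % of vehicle after blank subtraction.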

[2] = target: T2, FAAH (Rattus norvegicus, UniProt P97612); test: In vitro FAAH activity in rat brain membranes, 3H-AEA substrate, % of control; assay type: biochemical, Wistar rats; conditions: low value = strong inhibitor; for In Vitro FAAH activity, 100 nM: 100 nM test compound; for In Vitro 100 nM (FAAH activity, % of control): rat brain membranes, compound at 100 nM
T2 construct: Frozen brains (without cerebellum) from Wistar rats were used; from tissue; host or cells: Wistar rat brain (without cerebellum), washed membrane pellets
T2 sequence (P97612 1-579): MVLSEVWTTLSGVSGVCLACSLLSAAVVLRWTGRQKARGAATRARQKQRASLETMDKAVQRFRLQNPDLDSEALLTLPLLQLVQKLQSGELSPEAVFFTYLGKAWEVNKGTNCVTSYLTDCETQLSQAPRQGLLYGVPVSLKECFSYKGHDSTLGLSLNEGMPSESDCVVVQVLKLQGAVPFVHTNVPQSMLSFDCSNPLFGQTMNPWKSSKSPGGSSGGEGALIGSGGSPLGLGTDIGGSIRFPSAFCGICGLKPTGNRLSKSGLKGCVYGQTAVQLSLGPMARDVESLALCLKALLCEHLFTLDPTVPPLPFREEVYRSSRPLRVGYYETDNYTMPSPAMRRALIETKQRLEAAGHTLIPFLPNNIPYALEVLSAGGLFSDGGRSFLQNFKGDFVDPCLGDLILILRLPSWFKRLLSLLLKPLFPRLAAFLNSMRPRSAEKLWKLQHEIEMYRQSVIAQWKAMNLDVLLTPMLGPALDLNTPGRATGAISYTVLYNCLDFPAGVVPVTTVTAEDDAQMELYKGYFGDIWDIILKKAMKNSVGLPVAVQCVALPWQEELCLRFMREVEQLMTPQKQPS
How it was run: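 Wistar rat brain membranes (5 μg protein) preincubated 15 min at 37 °C with compound at 10 μM or 0.1 μM (0.1% DMSO), then 2 μM AEA including 3H-AEA with 0.1% BSA, Tris pH 7.6, 10 min. 3H-ethanolamine counted after charcoal stop; % of no-compound control after blank subtraction.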

[3] = target: T1, FAAH; test: In vivo FAAH inhibition after oral dosing, remaining activity in liver homogenate (LVh, peripheral tissue); set-up: species or system NMRI mice; conditions: liver homogenate, 3 mg/kg; for In Vivo LVh 3 mg·kg 8 h (remaining FAAH activity, % of control): 8 h after dosing, low value = strong inhibitor
How it was run: as §1

Compound	In Vivo BRh 3 mg/kg 8 h, remaining FAAH activity [1]	In Vitro FAAH activity, 100 nM [2]	In Vitro FAAH activity, 10 uM ([2]; 10 uM test compound)	In Vivo LVh 3 mg/kg 8 h, remaining FAAH activity [3]	In Vivo BRh 3 mg·kg 8 h (remaining FAAH activity, % of control) [1]	In Vitro 100 nM (FAAH activity, % of control) [2]	In Vivo LVh 3 mg·kg 8 h (remaining FAAH activity, % of control) [3]
CN(C(=O)n1cnc(-c2ccc(O)cc2)c1)C1CCCCC1 [Compound 261, N-cyclohexyl-4-(4-hydroxyphenyl)-N-methyl-1H-imidazole-1-carboxamide]	1.2 % of control	54.1 % of control	0 % of control	1.2 % of control			
Cc1c(-c2ccccc2)ncn1C(=O)N1COCC1(C)C [Compound 263, (4,4-dimethyloxazolidin-3-yl)(5-methyl-4-phenyl-1H-imidazol-1-yl)methanone]	98.1 % of control	92.1 % of control		98.8 % of control			
Cc1c(-c2ccccc2)ncn1C(=O)N(C)Cc1ccccc1 [Compound 264, N-benzyl-N,5-dimethyl-4-phenyl-1H-imidazole-1-carboxamide]	115 % of control	88 % of control		76.6 % of control			
CCC1CN(C(=O)n2cnc(-c3ccc(Cl)cc3)c2)C(C)(C)O1 (stereo not shown) [Compound 267, (4-(4-chlorophenyl)-1H-imidazol-1-yl)(5-ethyl-2,2-dimethyloxazolidin-3-yl)methanone]	79.4 % of control	84.1 % of control		83.7 % of control			
CN(C(=O)n1cnc(-c2ccc(F)c(F)c2)c1)C1CCCCC1 [Compound 272, N-cyclohexyl-4-(3,4-difluorophenyl)-N-methyl-1H-imidazole-1-carboxamide]	19 % of control	63.6 % of control		7.1 % of control			
CN(C(=O)n1cnc(-c2ccc(F)cc2)c1)C1CCCCC1 [Compound 273, N-cyclohexyl-4-(4-fluorophenyl)-N-methyl-1H-imidazole-1-carboxamide]					3.4 % of control	65.1 % of control	2.6 % of control
CN(C(=O)n1cnc(-c2cccc([N+](=O)[O-])c2)c1)C1CCCCC1 [Compound 275, N-cyclohexyl-N-methyl-4-(3-nitrophenyl)-1H-imidazole-1-carboxamide]					12.8 % of control	43.8 % of control	2.4 % of control
CN(C(=O)n1cnc(-c2ccc(OC(F)F)cc2)c1)C1CCCCC1 [Compound 276, N-cyclohexyl-4-(4-(difluoromethoxy)phenyl)-N-methyl-1H-imidazole-1-carboxamide]					1.4 % of control	71.5 % of control	2 % of control
CN(C(=O)n1cnc(-c2ccccc2)c1)C1CCOCC1 [Compound 278, N-methyl-4-phenyl-N-(tetrahydro-2H-pyran-4-yl)-1H-imidazole-1-carboxamide]					1.6 % of control	103.5 % of control	1.8 % of control
Cc1nc(-c2ccccc2)cn1C(=O)N(C)C1CCCCC1 [Compound 279, N-cyclohexyl-N,2-dimethyl-4-phenyl-1H-imidazole-1-carboxamide]					91.6 % of control	87.3 % of control	94.1 % of control
CN(C(=O)n1cnc(-c2ccccc2)c1)C1CCN(Cc2ccccc2)CC1 [Compound 282, N-(1-benzylpiperidin-4-yl)-N-methyl-4-phenyl-1H-imidazole-1-carboxamide]					0.5 % of control	40.9 % of control	1.6 % of control
Cc1nc(-c2ccccc2)nn1C(=O)N(C)C1CCCCC1 [Compound 284, N-cyclohexyl-N,5-dimethyl-3-phenyl-1H-1,2,4-triazole-1-carboxamide]					130.7 % of control	146.2 % of control	145.6 % of control
Cc1nc(-c2ccccc2)nn1C(=O)N1COCC1(C)C [Compound 286, (4,4-dimethyloxazolidin-3-yl)(5-methyl-3-phenyl-1H-1,2,4-triazol-1-yl)methanone]					104 % of control	112.8 % of control	93 % of control
CN(C(=O)n1cnc(-c2cccc(-c3cccc(C(N)=O)c3)c2)c1)C12CC3CC(CC(C3)C1)C2 [Compound 287, 4-(3′-carbamoylbiphenyl-3-yl)-N-methyl-N-tricyclo[3.3.1.13,7]dec-1-yl-1H-imidazole-1-carboxamide-propan-2-ol (1:1)]					105.8 % of control	127.3 % of control	85.7 % of control
CN(C(=O)n1cnc(-c2cccnc2)c1)C12CC3CC(CC(C3)C1)C2 [Compound 289, N-methyl-4-pyridin-3-yl-N-tricyclo[3.3.1.13,7]dec-1-yl-1H-imidazole-1-carboxamide]					113.2 % of control	109.8 % of control	96.1 % of control
CC1(C)COCN1C(=O)n1cnc(-c2ccccc2)c1Cl [Compound 295, (5-chloro-4-phenyl-1H-imidazol-1-yl)(4,4-dimethyloxazolidin-3-yl)methanone]					77.9 % of control	99.2 % of control	32.4 % of control
CN(C(=O)n1cnc(-c2cccc(O)c2)c1)C1CCCCC1 [Compound 307, N-cyclohexyl-4-(3-hydroxyphenyl)-N-methyl-1H-imidazole-1-carboxamide]					137.6 % of control	56.2 % of control	10.1 % of control
